Where a SMILES comes first, the peptide text is derived from it. [ ]: non-standard residue; d: D form. The star is where a group is joined. NHCH2CH2OH = OCCN*; For = O=C*
Legend:
[1] = test system: Streptococcus pyogenes SSI-9; assay: Antibacterial activity assay of bead-derived peptides (three concentrations); type: cell-based; design: key: +++: inhibition by the 640-fold diluted peptide solution; ++: inhibition by the 160-fold diluted solution; +: inhibition by the 40-fold diluted solution; -: no inhibition; conditions: S. pyogenes, bead-derived peptide solution, three concentrations
In short: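 Growth inhibition scored visually as precipitated bacteria after 37 °C, 18 h incubation. Streptococcus pyogenes SSI-9 inoculum of 2 × 10^5 CFU in Ca2+/Mg2+-adjusted Mueller Hinton broth plus 5% laked horse blood; peptides tested at three levels: stock, 4-fold and 16-fold DMSO dilutions.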

[2] = test system: P388 mouse leukemia cells; conditions: 92 h
In short: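 Peptide stocks diluted 250× in growth medium; P388 cells 1 × 10^4 cells/mL final; 37 °C, 5% CO2, 92 h. WST-1 + 1-methoxy PMS, 4 h, A415. Output: % viability.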

[3] = H+/Na+ transport assay of bead-derived peptides (one-point); type: biochemical; design: key: relative activity; mean of two control wells = 1.00; conditions: bead-derived peptide solution, EYPC/EYPG LUVs;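 note: relative to parent gramicidin A activity set to 1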
In short: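 Pyranine (1.0 mM)-loaded LUVs containing egg yolk phosphatidylglycerol were prepared by film hydration, sonication and extrusion, then mixed with diluted bead-derived peptide in 96-well format and vortexed 30 min at room temperature. Fluorescence was normalized between untreated LUVs (0%) and Triton X-100 lysis (100%).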

SMILES	antibacterial activity [1]	cell viability/% [2] [%]	H+/Na+ transport activity normalized against the value of 1 (1.00) [3]
CC(C)C[C@@H](NC(=O)[C@H](C)NC(=O)CNC(=O)[C@@H](NC=O)C(C)C)C(=O)N[C@@H](C)C(=O)N[C@H](CC(C)C)C(=O)N[C@H](C(=O)N[C@H](CC(C)C)C(=O)N[C@@H](Cc1c[nH]c2ccccc12)C(=O)N[C@@H](C(=O)N[C@@H](Cc1c[nH]c2ccccc12)C(=O)N[C@H](CC(C)C)C(=O)N[C@@H](Cc1c[nH]c2ccccc12)C(=O)N[C@@H](C(=O)N[C@@H](Cc1c[nH]c2ccccc12)C(=O)NCCO)C(C)C)[C@H](C)O)C(C)C [compound 7480] (For-VGA[dL]A[dL]V[dL]W[dT]W[dL]W[dV]W-NHCH2CH2OH)	-	100.0	1.01
CC(C)C[C@@H](NC(=O)[C@H](C)NC(=O)CNC(=O)[C@@H](NC=O)C(C)C)C(=O)N[C@@H](C)C(=O)N[C@@H](C(=O)N[C@H](C(=O)N[C@@H](C(=O)N[C@@H](Cc1c[nH]c2ccccc12)C(=O)N[C@@H](C(=O)N[C@@H](Cc1c[nH]c2ccccc12)C(=O)N[C@@H](C(=O)N[C@@H](Cc1c[nH]c2ccccc12)C(=O)N[C@@H](C(=O)N[C@@H](Cc1c[nH]c2ccccc12)C(=O)NCCO)C(C)C)C(C)C)C(C)C)C(C)C)C(C)C)C(C)C [compound 7516] (For-VGA[dL]A[dV]V[dV]W[dV]W[dV]W[dV]W-NHCH2CH2OH)	+	100.0	1.03
CC(C)C[C@@H](NC(=O)[C@H](C)NC(=O)CNC(=O)[C@@H](NC=O)C(C)C)C(=O)N[C@@H](C)C(=O)N[C@H](CC(C)C)C(=O)N[C@H](C(=O)N[C@@H](C(=O)N[C@@H](Cc1c[nH]c2ccccc12)C(=O)N[C@@H](C(=O)N[C@@H](Cc1c[nH]c2ccccc12)C(=O)N[C@@H](C(=O)N[C@@H](Cc1c[nH]c2ccccc12)C(=O)N[C@H](CC(C)C)C(=O)N[C@@H](Cc1c[nH]c2ccccc12)C(=O)NCCO)C(C)C)C(C)C)[C@H](C)O)C(C)C [compound 7548] (For-VGA[dL]A[dL]V[dT]W[dV]W[dV]W[dL]W-NHCH2CH2OH)	-	100.0	1.08
CC(C)C[C@@H](NC(=O)[C@H](Cc1c[nH]c2ccccc12)NC(=O)[C@H](NC(=O)[C@H](Cc1c[nH]c2ccccc12)NC(=O)[C@@H](CC(C)C)NC(=O)[C@H](Cc1c[nH]c2ccccc12)NC(=O)[C@H](NC(=O)[C@@H](NC(=O)[C@H](NC(=O)[C@H](C)NC(=O)[C@H](NC(=O)[C@H](C)NC(=O)CNC(=O)[C@@H](NC=O)C(C)C)C(C)C)C(C)C)C(C)C)[C@H](C)O)C(C)C)C(=O)N[C@@H](Cc1c[nH]c2ccccc12)C(=O)NCCO [compound 7702] (For-VGA[dV]A[dV]V[dT]W[dL]W[dV]W[dL]W-NHCH2CH2OH)	-	100.0	1.01
CNC(=O)C[C@@H](NC(=O)[C@@H](NC(=O)[C@H](NC(=O)[C@H](C)NC(=O)[C@@H](CC(C)C)NC(=O)[C@H](C)NC(=O)CNC(=O)[C@@H](NC=O)C(C)C)C(C)C)C(C)C)C(=O)N[C@@H](Cc1c[nH]c2ccccc12)C(=O)N[C@@H](C(=O)N[C@@H](Cc1c[nH]c2ccccc12)C(=O)N[C@H](CC(C)C)C(=O)N[C@@H](Cc1c[nH]c2ccccc12)C(=O)N[C@H](CC(C)C)C(=O)N[C@@H](Cc1c[nH]c2ccccc12)C(=O)NCCO)C(C)C [compound 7808] (For-VGA[dL]A[dV]V[dD](NHMe)W[dV]W[dL]W[dL]W-NHCH2CH2OH)	-	100.0	1.21
CC(C)C[C@@H](NC(=O)[C@H](C)NC(=O)[C@H](NC(=O)[C@H](C)NC(=O)CNC(=O)[C@@H](NC=O)C(C)C)C(C)C)C(=O)N[C@H](C(=O)N[C@@H](C(=O)N[C@@H](Cc1c[nH]c2ccccc12)C(=O)N[C@@H](C(=O)N[C@@H](Cc1c[nH]c2ccccc12)C(=O)N[C@H](CC(C)C)C(=O)N[C@@H](Cc1c[nH]c2ccccc12)C(=O)N[C@H](CC(C)C)C(=O)N[C@@H](Cc1c[nH]c2ccccc12)C(=O)NCCO)C(C)C)[C@H](C)O)C(C)C [compound 7840] (For-VGA[dV]A[dL]V[dT]W[dV]W[dL]W[dL]W-NHCH2CH2OH)	-	100.0	1.12
CC(C)C[C@@H](NC(=O)[C@H](C)NC(=O)CNC(=O)[C@@H](NC=O)C(C)C)C(=O)N[C@@H](C)C(=O)N[C@H](CC(C)C)C(=O)N[C@H](C(=O)N[C@@H](C(=O)N[C@@H](Cc1c[nH]c2ccccc12)C(=O)N[C@@H](C(=O)N[C@@H](Cc1c[nH]c2ccccc12)C(=O)N[C@@H](C(=O)N[C@@H](Cc1c[nH]c2ccccc12)C(=O)N[C@@H](C(=O)N[C@@H](Cc1c[nH]c2ccccc12)C(=O)NCCO)C(C)C)C(C)C)C(C)C)C(C)C)C(C)C [compound 7845] (For-VGA[dL]A[dL]V[dV]W[dV]W[dV]W[dV]W-NHCH2CH2OH)	+	100.0	1.04
CC(C)C[C@@H](NC(=O)[C@H](Cc1c[nH]c2ccccc12)NC(=O)[C@@H](CC(C)C)NC(=O)[C@H](Cc1c[nH]c2ccccc12)NC(=O)[C@@H](CC(C)C)NC(=O)[C@H](Cc1c[nH]c2ccccc12)NC(=O)[C@@H](CC(C)C)NC(=O)[C@@H](NC(=O)[C@H](NC(=O)[C@H](C)NC(=O)[C@H](NC(=O)[C@H](C)NC(=O)CNC(=O)[C@@H](NC=O)C(C)C)C(C)C)C(C)C)C(C)C)C(=O)N[C@@H](Cc1c[nH]c2ccccc12)C(=O)NCCO [compound 7864] (For-VGA[dV]A[dV]V[dL]W[dL]W[dL]W[dL]W-NHCH2CH2OH)	+	10.8	1.01
CC(C)C[C@@H](NC(=O)[C@H](C)NC(=O)[C@H](NC(=O)[C@H](C)NC(=O)CNC(=O)[C@@H](NC=O)C(C)C)[C@H](C)O)C(=O)N[C@H](C(=O)N[C@H](CC(C)C)C(=O)N[C@@H](Cc1c[nH]c2ccccc12)C(=O)N[C@@H](C(=O)N[C@@H](Cc1c[nH]c2ccccc12)C(=O)N[C@H](CC(C)C)C(=O)N[C@@H](Cc1c[nH]c2ccccc12)C(=O)N[C@H](CC(C)C)C(=O)N[C@@H](Cc1c[nH]c2ccccc12)C(=O)NCCO)C(C)C)C(C)C [compound 7890] (For-VGA[dT]A[dL]V[dL]W[dV]W[dL]W[dL]W-NHCH2CH2OH)	-	100.0	1.11
CC(C)C[C@@H](NC(=O)[C@H](C)NC(=O)[C@H](NC(=O)[C@H](C)NC(=O)CNC(=O)[C@@H](NC=O)C(C)C)[C@H](C)O)C(=O)N[C@H](C(=O)N[C@H](CC(C)C)C(=O)N[C@@H](Cc1c[nH]c2ccccc12)C(=O)N[C@H](CC(C)C)C(=O)N[C@@H](Cc1c[nH]c2ccccc12)C(=O)N[C@H](CC(C)C)C(=O)N[C@@H](Cc1c[nH]c2ccccc12)C(=O)N[C@H](CC(C)C)C(=O)N[C@@H](Cc1c[nH]c2ccccc12)C(=O)NCCO)C(C)C [compound 7905] (For-VGA[dT]A[dL]V[dL]W[dL]W[dL]W[dL]W-NHCH2CH2OH)	-	100.0	1.10
CC(C)C[C@@H](NC(=O)[C@H](C)NC(=O)CNC(=O)[C@@H](NC=O)C(C)C)C(=O)N[C@@H](C)C(=O)N[C@@H](C(=O)N[C@H](C(=O)N[C@H](CC(C)C)C(=O)N[C@@H](Cc1c[nH]c2ccccc12)C(=O)N[C@@H](C(=O)N[C@@H](Cc1c[nH]c2ccccc12)C(=O)N[C@@H](C(=O)N[C@@H](Cc1c[nH]c2ccccc12)C(=O)N[C@@H](C(=O)N[C@@H](Cc1c[nH]c2ccccc12)C(=O)NCCO)C(C)C)C(C)C)C(C)C)C(C)C)C(C)C [compound 7938] (For-VGA[dL]A[dV]V[dL]W[dV]W[dV]W[dV]W-NHCH2CH2OH)	+	17.4	1.10
CNC(=O)C[C@@H](NC(=O)[C@H](Cc1c[nH]c2ccccc12)NC(=O)[C@H](NC(=O)[C@H](Cc1c[nH]c2ccccc12)NC(=O)[C@@H](CC(C)C)NC(=O)[C@H](Cc1c[nH]c2ccccc12)NC(=O)[C@H](NC(=O)[C@@H](NC(=O)[C@H](NC(=O)[C@H](C)NC(=O)[C@@H](CC(C)C)NC(=O)[C@H](C)NC(=O)CNC(=O)[C@@H](NC=O)C(C)C)C(C)C)C(C)C)C(C)C)C(C)C)C(=O)N[C@@H](Cc1c[nH]c2ccccc12)C(=O)NCCO [compound 7948] (For-VGA[dL]A[dV]V[dV]W[dL]W[dV]W[dD](NHMe)W-NHCH2CH2OH)	-	100.0	1.04
CNC(=O)C[C@@H](NC(=O)[C@@H](NC(=O)[C@H](NC(=O)[C@H](C)NC(=O)[C@H](NC(=O)[C@H](C)NC(=O)CNC(=O)[C@@H](NC=O)C(C)C)C(C)C)C(C)C)C(C)C)C(=O)N[C@@H](Cc1c[nH]c2ccccc12)C(=O)N[C@H](CC(C)C)C(=O)N[C@@H](Cc1c[nH]c2ccccc12)C(=O)N[C@@H](C(=O)N[C@@H](Cc1c[nH]c2ccccc12)C(=O)N[C@@H](C(=O)N[C@@H](Cc1c[nH]c2ccccc12)C(=O)NCCO)C(C)C)C(C)C [compound 8057] (For-VGA[dV]A[dV]V[dD](NHMe)W[dL]W[dV]W[dV]W-NHCH2CH2OH)	-	100.0	1.13
